From patent US12318381B2, “Treatment for non-alcoholic fatty liver disease” (1GLOBE BIOMEDICAL CO., LTD., priority 2018, dated 2025)

Test system: human HepG2 liver cells
Assay: Intracellular fat content in palmitoleic acid-treated HepG2 cells (AdipoRed/Hoechst 33258 double staining, fluorometry)
Type: cell-based
Details: for palmitoleic acid-induced increase of intracellular triglyceride content: HepG2, 0.8 mM palmitoleic acid in EMEM; for inhibitory effect on fat accumulation as compared to Compound 13-3: HepG2, 0.8 mM palmitoleic acid
Description: The effects on triglyceride accumulation from Compound 13-3-1, Compound 13-3-2, Compound 13-3-3, Compound 13-3-5, Compound 13-3-6, Compound 13-3-7, Compound 18-2, Compound 13-3-10 and Compound 13-3-11, as exemplary compounds of the invention, were tested. Human HepG2 liver cells were incubated with 0.8 mM palmitoleic acid in EMEM medium for 24 hours in the presence of 0.1 μM compounds of the invention or control vehicle, DMSO. Subsequently, the cells were washed with PBS and the intracellular fat content was measured by AdipoRed/Hoechst 33258 double staining, which was assessed by flourometry.
And the effects of Compound 001, Compound 004, Compound 006, Compound 013, Compound 132, Compound 133 and Compound 134, as further exemplary compounds of the invention, were also tested. Human HepG2 liver cells were incubated with 0.8 mM palmitoleic acid in EMEM medium for 48 hours in the presence of 0.1 μM compounds of the invention or control vehicle, DMSO. Subsequently, the cells were washed with PBS and the intracellular fat content was measured by AdipoRed/Hoechst 33258 double staining, which was assessed by flourometry.

[1] = 48 hours, 0.1 μM compound vs DMSO (FIG. 1C)
[2] = 24 hours, 0.1 μM compound vs DMSO (FIG. 1B)

Row | Compound | palmitoleic acid-induced increase of intracellular triglyceride content [1] | inhibitory effect on fat accumulation as compared to Compound 13-3 (48 hours, 0.1 μM (FIG. 1C)) | palmitoleic acid-induced increase of intracellular triglyceride content [2] | inhibitory effect on fat accumulation as compared to Compound 13-3 (24 hours, 0.1 μM (FIG. 1B))
1 | [2H]C([2H])(NC(=O)c1c(C)[nH]c(/C=C2\C(=O)Nc3ccc(-c4csc(-c5ccccc5)n4)cc32)c1C)C([2H])([2H])N(CC)CC [Compound 001] | markedly suppressed | comparable or greater |  | 
2 | [2H]C([2H])([2H])C([2H])([2H])N(C([2H])([2H])C([2H])([2H])[2H])C([2H])([2H])C([2H])([2H])NC(=O)c1c(C)[nH]c(/C=C2\C(=O)Nc3ccc(-c4csc(-c5ccccc5)n4)cc32)c1C [Compound 004] | markedly suppressed | comparable or greater |  | 
3 | [2H]c1c([2H])c([2H])c(-c2nc(-c3ccc4c(c3)/C(=C/c3[nH]c(C)c(C(=O)NC([2H])([2H])C([2H])([2H])N(C([2H])([2H])C([2H])([2H])[2H])C([2H])([2H])C([2H])([2H])[2H])c3C)C(=O)N4)cs2)c([2H])c1[2H] [Compound 006] | markedly suppressed | comparable or greater |  | 
4 | CCN(CC)CCNC(=O)c1c(C)[nH]c(/C=C2\C(=O)Nc3ccc(-c4csc(Nc5ccccc5)n4)cc32)c1C [Compound 13-3-1] |  |  | markedly suppressed | comparable or greater
5 | CCN(CC)CCNC(=O)c1c(C)[nH]c(/C=C2\C(=O)Nc3ccc(-c4csc(N5CCCCC5)n4)cc32)c1C [Compound 13-3-2] |  |  | markedly suppressed | comparable or greater
6 | CCN(CC)CCNC(=O)c1c(C)[nH]c(/C=C2\C(=O)Nc3ccc(C(=O)Nc4csc([N+](=O)[O-])n4)cc32)c1C [Compound 13-3-3] |  |  | markedly suppressed | comparable or greater
7 | CCN(CC)CCNC(=O)c1c(C)[nH]c(/C=C2\C(=O)Nc3cccc(-c4cnc(OC)nc4)c32)c1C [Compound 13-3-5] |  |  | markedly suppressed | comparable or greater
8 | CCN(CC)CCC(=O)N1CCN(c2ccc(/C=C3\C(=O)Nc4ccc(-c5csc(-c6ccccc6)n5)cc43)cc2)CC1 [Compound 13-3-6] |  |  | markedly suppressed | comparable or greater
9 | CCN(CC)CCNC(=O)CCc1c(C)[nH]c(/C=C2\C(=O)Nc3ccc(-c4csc(-c5ccccc5)n4)cc32)c1C [Compound 13-3-7] |  |  | markedly suppressed | comparable or greater
10 | CCN(CC)CCNC(=O)c1c(C)[nH]c(/C=C2\C(=O)Nc3cnc(-c4csc(-c5ccccc5)n4)cc32)c1C [Compound 13-3-10] |  |  | markedly suppressed | comparable or greater
11 | CCN(CC)CCNC(=O)c1c(C)[nH]c(/C=C2\C(=O)Nc3ccc(C4CCN(c5ccccc5)CC4)cc32)c1C [Compound 13-3-11] |  |  | markedly suppressed | comparable or greater
12 | [2H]c1c([2H])c([2H])c(-c2nc(-c3ccc4c(c3)/C(=C/c3[nH]c(C)c(C(=O)NC([2H])([2H])C([2H])([2H])N(CC)CC)c3C)C(=O)N4)cs2)c([2H])c1[2H] [Compound 013] | markedly suppressed | comparable or greater |  | 
13 | Cc1[nH]c(/C=C2\C(=O)Nc3ccc(-c4csc(-c5cccnc5)n4)cc32)c(C)c1C(=O)N1CCN(C)CC1 [Compound 18-2] |  |  | markedly suppressed | comparable or greater
14 | [2H]c1c([2H])c([2H])c(-c2nc(-c3ccc4c(c3)/C(=C/c3[nH]c(C)c(C(=O)NCCN(CC)CC)c3C)C(=O)N4)cs2)c([2H])c1[2H] [Compound 132] | markedly suppressed | comparable or greater |  | 
15 | [2H]c1c([2H])c([2H])c(-c2nc(-c3ccc4c(c3)/C(=C/c3[nH]c(C)c(C(=O)NCCN(C([2H])([2H])C([2H])([2H])[2H])C([2H])([2H])C([2H])([2H])[2H])c3C)C(=O)N4)cs2)c([2H])c1[2H] [Compound 133] | markedly suppressed | comparable or greater |  | 
16 | [2H]C([2H])([2H])C([2H])([2H])N(CCNC(=O)c1c(C)[nH]c(/C=C2\C(=O)Nc3ccc(-c4csc(-c5ccccc5)n4)cc32)c1C)C([2H])([2H])C([2H])([2H])[2H] [Compound 134] | markedly suppressed | comparable or greater |  | 
